Structures are written as SMILES.

The term GI50 denotes the concentration that inhibits growth by half. A lower GI50 goes with more potent growth inhibition. Usually IC50 stands for the point on the concentration scale where inhibition reaches its midpoint. A high value points to a need for much substance.

Assay type in all cases: cell-based
Test [1] relates to H1650 lung cancer cells. As to the kind of experiment: Cell viability assay (MTT), H1650 lung cancer cells. As to conditions: for GI50 / IC50: Homo sapiens, NCI-H1650; for IC50: H1650 lung cancer cells, 48 h drug treatment, MTT. How it is done:
Cell Viability Assays (IC50 Determination)
Cell viability assays were performed according to Denizot, F. and R. Lang, Journal of Immunological Methods, 1986. 89(22): p. 271-277. H1650 lung cancer cells were plated at 150,000 cells per well in a 12 well plate. Twenty-four hours after plating, cells were treated as described with increasing concentrations of drug and control. Forty-eight hours after drug treatment, cells were treated with 100 μL of 3-(4,5-Dimethylthiazol-2-yl)-2,5-diphenyltetrazolium bromide (MTT) and incubated for 2 hours at 37 C. The MTT solution was subsequently replaced with 300 μL of n-propyl alcohol and re-aliquoted to a 96 well plate. Spectrophotometric analysis of each solution was performed using a 96 well plate reader at 600 nm in triplicate.

The subject of test [2] is A549luc cells. As to the kind of experiment: Colony formation (clonogenic) assay, A549luc cells. As to conditions: Homo sapiens, 168 h; A549 luc, harvested 7 days after initial treatment. On the procedure: (§1) Protocol for clonogenic assay follows Sangodkar et al., J Clin Invest 2012; 122:2637-51.
(§2) Cell culture and staining: For both A549luc and H1650 cells, 500 cells are seeded into each well of a 6-well plate and allowed to attach for 24 hours before drug treatment. The following day, cells are treated with either the appropriate dose of drug or an equivalent volume of DMSO (two replicates were treated for each condition). For each condition, depleted media was replaced with fresh media containing the equivalent drug dose four days after initial treatment. Cells are harvested either 7 (A549 luc) or 8 (H1650) days after initial treatment. Briefly, medium is aspirated from each well and the cells are washed twice with ice-cold PBS, then plates are allowed to dry at room temperature for 4 hours. Cells are fixed for one hour in a fixing solution consisting of 10% methanol and 10% glacial acetic acid in distilled water, then stained overnight in 1% (w/v) crystal violet dissolved in methanol. The next day, staining solution is aspirated from the wells and plates are washed gently with distilled water to remove excess stain before colony counting. Colonies are imaged on a ChemiDoc XRS+ (Bio-Rad) and images are exported as 8-bit TIFF files. Colonies are counted using the Colony Counter plugin in ImageJ, with colony size defined as between 4 and 400 square pixels, and minimum circularity set at 0.6. Duplicate wells are averaged to obtain a single value for each condition. Results (number of colonies) for A549 luc cells and results (number of colonies) for H1650 cells may be analyzed separately.

The subject of test [3] is H1650 cells. In words: Colony formation (clonogenic) assay, H1650 cells. As to conditions: Homo sapiens, NCI-H1650, 192 h; H1650, harvested 8 days after initial treatment. On the procedure:
as §1, §2

As for `O=S(=O)(N[C@H]1CCC[C@@H](n2c3ccc(F)cc3c3cc(F)ccc32)[C@@H]1O)c1ccc(OC(F)(F)F)cc1` [Example 32a, N-((1S,2S,3R)-3-(3,6-difluoro-9H-carbazol-9-yl)-2-hydroxycyclohexyl)-4-(trifluoromethoxy)benzenesulfonamide], halving of growth in test [1] (H1650 cells) (GI50) required 5 µM. Consider `O=S(=O)(N[C@H]1CCC[C@@H](n2c3ccccc3c3ccccc32)[C@@H]1O)c1ccc(OC(F)(F)F)cc1` (single isomer, unassigned) [Example 3b], for which the figures for the GI50 in test [1] (H1650 cells), in test [2] and in test [3] were 10 µM, 10 µM and 7.5 µM, respectively.

Regarding `O=S(=O)(N[C@H]1CCC[C@@H](n2c3ccccc3c3cc(F)ccc32)[C@@H]1O)c1ccc(OC(F)(F)F)cc1` (stereo in doubt) [Example 31b, N-((1S,2S,3R)-3-(3-fluoro-9H-carbazol-9-yl)-2-hydroxycyclohexyl)-4-(trifluoromethoxy)benzenesulfonamide], halving of growth in test [1] (H1650 cells) (GI50) required 5 µM. Compound `COc1ccc(S(=O)(=O)N[C@@H]2CCCC(n3c4ccccc4c4ccccc43)[C@H]2O)cc1` (relative stereo) [Example 6, N-((1S,2S,3R)-rel-3-(9H-carbazol-9-yl)-2-hydroxycyclohexyl)-4-methoxybenzenesulfonamide] had a GI50 in test [1] (H1650 cells) of 20 µM. Besides, the midpoint of inhibition in test [1], the IC50, lay at 20 µM. With `O=S(=O)(N[C@H]1CCC[C@@H](N2c3ccccc3Oc3ccccc32)[C@@H]1O)c1ccc(OC(F)(F)F)cc1` (single isomer, unassigned) [Example 1b], the GI50 in test [1] (H1650 cells) was 5 µM; in test [2], 7.5 µM; in test [3], 5 µM. `N#Cc1ccc(S(=O)(=O)N[C@@H]2CCCC(n3c4ccccc4c4ccccc43)[C@H]2O)cc1` (relative stereo) [Example 5, N-((1S,2S,3R)-rel-3-(9H-carbazol-9-yl)-2-hydroxycyclohexyl)-4-cyanobenzenesulfonamide] displayed a concentration for 50% growth inhibition (GI50) in test [1] (H1650 cells) of 20 µM. In addition, in test [1], it took 20 µM to reach half-maximal inhibition (IC50). Take `O=S(=O)(N[C@@H]1CCCC(n2c3ccc(Cl)cc3c3cc(Cl)ccc32)[C@H]1O)c1ccc(OC(F)(F)F)cc1` (mixture of isomers) [Example 22]: halving of growth in test [1] (H1650 cells) (GI50) required 5 µM. In other words, the single-digit micromolar range. As for `O=S(=O)(N[C@@H]1CCCC(N2c3ccccc3Oc3ccccc32)[C@H]1O)c1ccc(OC(F)(F)F)cc1` (mixture of isomers) [Example 1, N-(2-hydroxy-3-(10H-phenoxazin-10-yl)cyclohexyl)-4-(trifluoromethoxy)benzenesulfonamide], the GI50 in test [1] (H1650 cells) was determined as 5 µM; in test [2] it was 7.5 µM; in test [3], 5 µM. Half-maximal inhibition in test [1] (IC50) was put at 5 µM. The compound `O=S(=O)(N[C@@H]1CCCC(N2c3ccccc3Oc3ccccc32)[C@H]1O)c1ccc(OC(F)(F)F)c(Cl)c1` (mixture of isomers) [Example 21] yielded a GI50 in test [1] (H1650 cells) of 15 µM. For `O=S(=O)(N[C@@H]1CCCC(n2c3ccc(Br)cc3c3cc(Br)ccc32)[C@H]1O)c1ccc(OC(F)(F)F)cc1` (mixture of isomers) [Example 24], growth in test [1] (H1650 cells) was halved (GI50) at 5 µM. The same measure, in the same setting: for `N#Cc1ccc2c(c1)c1cc(Br)ccc1n2C1CCC[C@@H](NS(=O)(=O)c2ccc(OC(F)(F)F)cc2)[C@@H]1O` (mixture of isomers) [Example 27] the value was 5 µM. Same read-out and setting: for `COC(=O)c1ccc2c(c1)c1ccccc1n2C1CCC[C@@H](NS(=O)(=O)c2ccc(OC(F)(F)F)cc2)[C@@H]1O` (mixture of isomers) [Example 29] the value was 15 µM. In test [1] (H1650 cells), `O=S(=O)(N[C@@H]1CCCC(N2c3ccccc3COc3ccccc32)[C@H]1O)c1ccc(OC(F)(F)F)cc1` (mixture of isomers) [Example 2, N-((1R,2R,3S)-rel-3-(dibenzo[b,e][1,4]oxazepin-5(11H)-yl)-2-hydroxycyclohexyl)-4-(trifluoromethoxy)benzenesulfonamide] showed a GI50 of 20 µM. In addition, the IC50 in test [1] was 20 µM.

`O=S(=O)(N[C@@H]1CCCC(N2c3ccccc3Oc3ccccc32)[C@H]1O)c1ccc(CC(F)(F)F)cc1` (mixture of isomers) [Example 18] registered a GI50 in test [1] (H1650 cells) of 15 µM. In other words, the double-digit micromolar range. Turning to `O=S(=O)(N[C@@H]1CCCC(n2c3ccccc3c3ccccc32)[C@H]1O)c1ccc(OC(F)(F)F)cc1` (mixture of isomers) [Example 3, (1S,2S,3R)-rel-N-(3-(9H-carbazol-9-yl)-2-hydroxycyclohexyl)-4-(trifluoromethoxy)benzenesulfonamide], the GI50 in test [1] (H1650 cells) was 10 µM; in test [2], 7.5 µM; in test [3], 5 µM. The IC50 in test [1] came to 10 µM.

The compound `N#Cc1ccc2c(c1)c1ccccc1n2C1CCC[C@@H](NS(=O)(=O)c2ccc(OC(F)(F)F)cc2)[C@@H]1O` (mixture of isomers) [Example 28] had a GI50 in test [1] (H1650 cells) of 10 µM.

As for `O=S(=O)(N[C@@H]1CCCC(N2c3ccccc3Oc3ccccc32)[C@H]1O)c1ccc(C(F)(F)C(F)(F)F)cc1` (mixture of isomers) [Example 19], growth in test [1] (H1650 cells) was halved (GI50) at 10 µM. This counts as double-digit micromolar. Still for that read-out and setting: for `O=S(=O)(N[C@@H]1CCCC(n2c3ccccc3c3cc(Br)ccc32)[C@H]1O)c1ccc(OC(F)(F)F)cc1` (mixture of isomers) [Example 30] the value was 5 µM; for `O=S(=O)(N[C@@H]1CCC[C@H](n2c3ccc(F)cc3c3cc(F)ccc32)[C@H]1O)c1ccc(OC(F)(F)F)cc1` [Example 32b], 5 µM. Take `O=S(=O)(N[C@@H]1CCCC(n2c3ccccc3c3ccccc32)[C@H]1O)c1ccc(Cl)cc1` (relative stereo) [Example 4, N-((1S,2S,3R)-rel-3-(9H-carbazol-9-yl)-2-hydroxycyclohexyl)-4-chlorobenzenesulfonamide]: the GI50 in test [1] (H1650 cells) came to 15 µM. The compound also yielded an IC50 in test [1] of 15 µM.

For the compound `O=S(=O)(N[C@H]1CCC[C@@H](n2c3ccccc3c3cc(F)ccc32)[C@@H]1O)c1ccc(OC(F)(F)F)cc1` [Example 31a, N-((1S,2S,3R)-3-(3-fluoro-9H-carbazol-9-yl)-2-hydroxycyclohexyl)-4-(trifluoromethoxy)benzenesulfonamide], the GI50 in test [1] (H1650 cells) turned out to be 5 µM. For the compound `CN1C(=O)c2ccccc2N(C2CCC[C@@H](NS(=O)(=O)c3ccc(OC(F)(F)F)cc3)[C@@H]2O)c2ccccc21` (relative stereo) [Example 8, 4-Trifluoromethoxy-N-((1S,2S,3R)-rel-2-hydroxy-3-(10-methyl-11-oxo-10,11-dihydro-5H-dibenzo[b,e][1,4]diazepin-5-yl)cyclohexyl)benzenesulfonamide], it took 15 µM to inhibit growth in test [1] (H1650 cells) by half (GI50). The IC50 in test [1] turned out to be 15 µM. In test [1] (H1650 cells), `O=S(=O)(N[C@@H]1CCCC(N2c3ccccc3Oc3ccccc32)[C@H]1O)c1ccc(SC(F)(F)F)cc1` (mixture of isomers) [Example 16] showed a GI50 of 10 µM. As to `N#Cc1ccc2c(c1)c1cc(C#N)ccc1n2C1CCC[C@@H](NS(=O)(=O)c2ccc(OC(F)(F)F)cc2)[C@@H]1O` (mixture of isomers) [Example 26], the “H1650 GI50” value in test [1] (H1650 cells) is on record as “Weak”. `O=S(=O)(N[C@@H]1CCCC(N2c3ccccc3Oc3ccccc32)[C@H]1O)c1ccc(OC(F)F)cc1` (mixture of isomers) [Example 20]: the GI50 in test [1] (H1650 cells) worked out at 25 µM. `O=S(=O)(N[C@@H]1CCCC(n2c3ccccc3c3ccccc32)[C@H]1O)c1ccccc1` (relative stereo) [Example 7, N-((1S,2S,3R)-rel-3-(9H-carbazol-9-yl)-2-hydroxycyclohexyl) benzenesulfonamide]: in test [1] (H1650 cells), growth was halved (GI50) at 25 µM. This compound also came in with a half-maximal inhibitory concentration (IC50) in test [1] of 25 µM. For `O=S(=O)(N[C@@H]1CCCC(n2c3ccc(Br)cc3c3cc(Br)ccc32)[C@H]1O)c1ccc(Cl)cc1` (mixture of isomers) [Example 25], halving of growth in test [1] (H1650 cells) (GI50) required 15 µM. Turning to `O=S(=O)(N[C@@H]1CCCC(n2c3ccc(Cl)cc3c3cc(Cl)ccc32)[C@H]1O)c1ccc(Cl)cc1` (mixture of isomers) [Example 23], the GI50 in test [1] (H1650 cells) stood at 5 µM. In turn, `CN1C(=O)c2ccccc2N(C2CCC[C@@H](NS(=O)(=O)c3ccc(Cl)cc3)[C@@H]2O)c2ccccc21` (relative stereo) [Example 9, 4-Chloro-N-((1S,2S,3R)-rel-2-hydroxy-3-(10-methyl-11-oxo-10,11-dihydro-5H-dibenzo[b,e][1,4]diazepin-5-yl)cyclohexyl)benzenesulfonamide] displayed a GI50 in test [1] (H1650 cells) of 25 µM. The compound also came in with a half-inhibitory concentration (IC50) in test [1] of 25 µM. Take `O=S(=O)(N[C@@H]1CCCC(N2c3ccccc3Oc3ccccc32)[C@H]1O)c1ccc(OC(F)(F)F)cc1Cl` (mixture of isomers) [Example 17]: in test [1] (H1650 cells), growth was halved (GI50) at 15 µM.

For the origin of these results see patent US9937186B2, “Sulfonamides derived from tricyclyl-2-aminocycloalkanols as anticancer agents” (ICAHN SCHOOL OF MEDICINE AT MOUNT SINAI, priority 2014, dated 2018).
